{"source": "ChEMBL document CHEMBL5055643", "about": "“Sophoraflavanone G Resensitizes ABCG2-Overexpressing Multidrug-Resistant Non-Small-Cell Lung Cancer Cells to Chemotherapeutic Drugs” (J Nat Prod, 2021)", "format_in_all_cases": "functional", "key": {"NCI-H460 [1]": {"system": "NCI-H460", "experiment": "Chemo-sensitizing activity against mitoxantrone-selected ABCG2-overexpressing human NCI-H460/MX20 cells assessed as reversal fold at 1 uM measured after 72 hrs in presence of SN-38 by CCK8 assay relative to control"}, "HEK293 [2]": {"system": "HEK293", "experiment": "Chemo-sensitizing activity against human HEK293 cells assessed as reversal fold at 1 uM measured after 72 hrs in presence of SN-38 by CCK8 assay relative to control"}, "HEK293 [3]": {"system": "HEK293", "experiment": "Chemo-sensitizing activity against human HEK293 cells assessed as reversal fold at 1 uM measured after 72 hrs in presence of topotecan by CCK8 assay relative to control"}, "NCI-H460 [4]": {"system": "NCI-H460", "experiment": "Chemo-sensitizing activity against human NCI-H460 cells assessed as reversal fold at 1 uM measured after 72 hrs in presence of topotecan by CCK8 assay relative to control"}, "A549 [5]": {"system": "A549", "experiment": "Chemo-sensitizing activity against human A549 cells assessed as reversal fold at 1 uM measured after 72 hrs in presence of mitoxantrone by CCK8 assay relative to control"}, "HEK293 [6]": {"system": "HEK293", "experiment": "Chemo-sensitizing activity against human HEK293 cells assessed as reversal fold at 1 uM measured after 72 hrs in presence of mitoxatrone by CCK8 assay relative to control"}, "NCI-H460 [7]": {"system": "NCI-H460", "experiment": "Chemo-sensitizing activity against mitoxantrone-selected ABCG2-overexpressing human NCI-H460/MX20 cells assessed as reversal fold at 1 uM measured after 72 hrs in presence of topotecan by CCK8 assay relative to control"}, "NCI-H460 [8]": {"system": "NCI-H460", "experiment": "Chemo-sensitizing activity against human NCI-H460 cells assessed as reversal fold at 1 uM measured after 72 hrs in presence of mitoxantrone by CCK8 assay relative to control"}, "A549 [9]": {"system": "A549", "experiment": "Chemo-sensitizing activity against human A549 cells assessed as reversal fold at 1 uM measured after 72 hrs in presence of SN-38 by CCK8 assay relative to control"}, "HEK293 [10]": {"system": "HEK293", "experiment": "Chemo-sensitizing activity against ABCG2-overexpressing human HEK293/482R cells assessed as reversal fold at 1 uM measured after 72 hrs in presence of SN-38 by CCK8 assay relative to control"}, "A549 [11]": {"system": "A549", "experiment": "Chemo-sensitizing activity against becatecarin-selected ABCG2-overexpressing human A549/Bec150 cells assessed as reversal fold at 1 uM measured after 72 hrs in presence of mitoxantrone by CCK8 assay relative to control"}, "NCI-H460 [12]": {"system": "NCI-H460", "experiment": "Chemo-sensitizing activity against mitoxantrone-selected ABCG2-overexpressing human NCI-H460/MX20 cells assessed as reversal fold at 1 uM measured after 72 hrs in presence of mitoxantrone by CCK8 assay relative to control"}, "A549 [13]": {"system": "A549", "experiment": "Chemo-sensitizing activity against becatecarin-selected ABCG2-overexpressing human A549/Bec150 cells assessed as reversal fold at 1 uM measured after 72 hrs in presence of topotecan by CCK8 assay relative to control"}, "HEK293 [14]": {"system": "HEK293", "experiment": "Chemo-sensitizing activity against ABCG2-overexpressing human HEK293/482R cells assessed as reversal fold at 1 uM measured after 72 hrs in presence of mitoxatrone by CCK8 assay relative to control"}, "A549 [15]": {"system": "A549", "experiment": "Chemo-sensitizing activity against human A549 cells assessed as reversal fold at 1 uM measured after 72 hrs in presence of topotecan by CCK8 assay relative to control"}, "HEK293 [16]": {"system": "HEK293", "experiment": "Chemo-sensitizing activity against ABCG2-overexpressing human HEK293 cells assessed as reversal fold at 1 uM measured after 72 hrs in presence of topotecan by CCK8 assay relative to control"}, "NCI-H460 [17]": {"system": "NCI-H460", "experiment": "Chemo-sensitizing activity against human NCI-H460 cells assessed as reversal fold at 1 uM measured after 72 hrs in presence of SN-38 by CCK8 assay relative to control"}, "A549 [18]": {"system": "A549", "experiment": "Chemo-sensitizing activity against becatecarin-selected ABCG2-overexpressing human A549/Bec150 cells assessed as reversal fold at 1 uM measured after 72 hrs in presence of SN-38 by CCK8 assay relative to control"}, "KB 3-1 [19]": {"system": "KB 3-1", "experiment": "Chemo-sensitizing activity against human KB 3-1 cells assessed as reversal fold at 1 uM measured after 72 hrs in presence of paclitaxel by CCK8 assay relative to control"}, "KB-V1 [20]": {"system": "KB-V1", "experiment": "Chemo-sensitizing activity against ABCB1-overexpressing human KB-V1 cells assessed as reversal fold at 1 uM measured after 72 hrs in presence of vincristine by CCK8 assay relative to control"}, "NCI/ADR-RES [21]": {"system": "NCI/ADR-RES", "experiment": "Chemo-sensitizing activity against ABCB1-overexpressing human NCI/ADR-RES cells assessed as reversal fold at 1 uM measured after 72 hrs in presence of colchicine by CCK8 assay relative to control"}, "OVCAR-8 [22]": {"system": "OVCAR-8", "experiment": "Chemo-sensitizing activity against human OVCAR-8 cells assessed as reversal fold at 1 uM measured after 72 hrs in presence of colchicine by CCK8 assay relative to control"}, "OVCAR-8 [23]": {"system": "OVCAR-8", "experiment": "Chemo-sensitizing activity against human OVCAR-8 cells assessed as reversal fold at 1 uM measured after 72 hrs in presence of paclitaxel by CCK8 assay relative to control"}, "HEK293 [24]": {"system": "HEK293", "experiment": "Chemo-sensitizing activity against ABCB1-overexpressing human HEK293/MDR19 cells assessed as reversal fold at 1 uM measured after 72 hrs in presence of vincristine by CCK8 assay relative to control"}, "KB-V1 [25]": {"system": "KB-V1", "experiment": "Chemo-sensitizing activity against ABCB1-oveexpressing human KB-V1 cells assessed as reversal fold at 1 uM measured after 72 hrs in presence of colchicine by CCK8 assay relative to control"}, "KB 3-1 [26]": {"system": "KB 3-1", "experiment": "Chemo-sensitizing activity against human KB 3-1 cells assessed as reversal fold at 1 uM measured after 72 hrs in presence of colchicine by CCK8 assay relative to control"}, "HEK293 [27]": {"system": "HEK293", "experiment": "Chemo-sensitizing activity against human HEK293 cells assessed as reversal fold at 1 uM measured after 72 hrs in presence of paclitaxel by CCK8 assay relative to control"}, "HEK293 [28]": {"system": "HEK293", "experiment": "Chemo-sensitizing activity against ABCB1-overexpressing human HEK293/MDR19 cells assessed as reversal fold at 1 uM measured after 72 hrs in presence of colchicine by CCK8 assay relative to control"}, "HEK293 [29]": {"system": "HEK293", "experiment": "Chemo-sensitizing activity against human HEK293 cells assessed as reversal fold at 1 uM measured after 72 hrs in presence of vincristine by CCK8 assay relative to control"}, "NCI/ADR-RES [30]": {"system": "NCI/ADR-RES", "experiment": "Chemo-sensitizing activity against ABCB1-overexpressing human NCI/ADR-RES cells assessed as reversal fold at 1 uM measured after 72 hrs in presence of vincristine by CCK8 assay relative to control"}, "NCI/ADR-RES [31]": {"system": "NCI/ADR-RES", "experiment": "Chemo-sensitizing activity against ABCB1-overexpressing human NCI/ADR-RES cells assessed as reversal fold at 1 uM measured after 72 hrs in presence of paclitaxel by CCK8 assay relative to control"}, "HEK293 [32]": {"system": "HEK293", "experiment": "Chemo-sensitizing activity against ABCB1-overexpressing human HEK293/MDR19 cells assessed as reversal fold at 1 uM measured after 72 hrs in presence of paclitaxel by CCK8 assay relative to control"}, "HEK293 [33]": {"system": "HEK293", "experiment": "Chemo-sensitizing activity against human HEK293 cells assessed as reversal fold at 1 uM measured after 72 hrs in presence of colchicine by CCK8 assay relative to control"}, "KB-V1 [34]": {"system": "KB-V1", "experiment": "Chemo-sensitizing activity against ABCB1-overexpressing human KB-V1 cells assessed as reversal fold at 1 uM measured after 72 hrs in presence of paclitaxel by CCK8 assay relative to control"}, "KB 3-1 [35]": {"system": "KB 3-1", "experiment": "Chemo-sensitizing activity against human KB 3-1 cells assessed as reversal fold at 1 uM measured after 72 hrs in presence of vincristine by CCK8 assay relative to control"}, "OVCAR-8 [36]": {"system": "OVCAR-8", "experiment": "Chemo-sensitizing activity against human OVCAR-8 cells assessed as reversal fold at 1 uM measured after 72 hrs in presence of vincristine by CCK8 assay relative to control"}}}
{"smiles": "COc1ccc2c3c([nH]c2c1)[C@H](CC(C)C)N1C(=O)[C@H](CCC(=O)OC(C)(C)C)NC(=O)[C@@H]1C3", "values": [{"measurement": "fold change (FC)", "setting": "NCI-H460 [1]", "value": 20.6}, {"measurement": "fold change (FC)", "setting": "HEK293 [2]", "value": 1}, {"measurement": "fold change (FC)", "setting": "HEK293 [3]", "value": 0.9}, {"measurement": "fold change (FC)", "setting": "NCI-H460 [4]", "value": 2.7}, {"measurement": "fold change (FC)", "setting": "A549 [5]", "value": 2}, {"measurement": "fold change (FC)", "setting": "HEK293 [6]", "value": 1.1}, {"measurement": "fold change (FC)", "setting": "NCI-H460 [7]", "value": 22.6}, {"measurement": "fold change (FC)", "setting": "NCI-H460 [8]", "value": 1.7}, {"measurement": "fold change (FC)", "setting": "A549 [9]", "value": 1.6}, {"measurement": "fold change (FC)", "setting": "HEK293 [10]", "value": 24.1}, {"measurement": "fold change (FC)", "setting": "A549 [11]", "value": 14.9}, {"measurement": "fold change (FC)", "setting": "NCI-H460 [12]", "value": 18}, {"measurement": "fold change (FC)", "setting": "A549 [13]", "value": 9.1}, {"measurement": "fold change (FC)", "setting": "HEK293 [14]", "value": 11.9}, {"measurement": "fold change (FC)", "setting": "A549 [15]", "value": 1.7}, {"measurement": "fold change (FC)", "setting": "HEK293 [16]", "value": 5.8}, {"measurement": "fold change (FC)", "setting": "NCI-H460 [17]", "value": 3}, {"measurement": "fold change (FC)", "setting": "A549 [18]", "value": 13.2}]}
{"smiles": "COc1cc2c(cc1OC)CN(CCc1ccc(NC(=O)c3cc(OC)c(OC)cc3NC(=O)c3cnc4ccccc4c3)cc1)CC2", "note": "[TARIQUIDAR]", "values": [{"measurement": "fold change (FC)", "setting": "KB 3-1 [19]", "value": 0.9}, {"measurement": "fold change (FC)", "setting": "KB-V1 [20]", "value": 786}, {"measurement": "fold change (FC)", "setting": "NCI/ADR-RES [21]", "value": 45}, {"measurement": "fold change (FC)", "setting": "OVCAR-8 [22]", "value": 1}, {"measurement": "fold change (FC)", "setting": "OVCAR-8 [23]", "value": 1}, {"measurement": "fold change (FC)", "setting": "HEK293 [24]", "value": 245.2}, {"measurement": "fold change (FC)", "setting": "KB-V1 [25]", "value": 50.7}, {"measurement": "fold change (FC)", "setting": "KB 3-1 [26]", "value": 1.2}, {"measurement": "fold change (FC)", "setting": "HEK293 [27]", "value": 1}, {"measurement": "fold change (FC)", "setting": "HEK293 [28]", "value": 12.9}, {"measurement": "fold change (FC)", "setting": "HEK293 [29]", "value": 1.5}, {"measurement": "fold change (FC)", "setting": "NCI/ADR-RES [30]", "value": 174}, {"measurement": "fold change (FC)", "setting": "NCI/ADR-RES [31]", "value": 1040}, {"measurement": "fold change (FC)", "setting": "HEK293 [32]", "value": 309}, {"measurement": "fold change (FC)", "setting": "HEK293 [33]", "value": 1}, {"measurement": "fold change (FC)", "setting": "KB-V1 [34]", "value": 1281}, {"measurement": "fold change (FC)", "setting": "KB 3-1 [35]", "value": 1.1}, {"measurement": "fold change (FC)", "setting": "OVCAR-8 [36]", "value": 1.3}]}
